Experimental findings from paper PMC10254233, “Synthesis and In Vitro Biological Evaluation of p-Carborane-Based Di-tert-butylphenol Analogs” (Molecules, 2023) are described below.

For data set [1], the system named is HCT116 colorectal carcinoma. In words: Cell viability, MTT assay, HCT116. Type of data set: cell-based, human. The conditions noted are these: 72 h, mean ± SD. How it is done: (§1) Five human cell lines (A375 melanoma, A549 lung adenocarcinoma, HCT116 and HT29 colorectal carcinoma, MDA-MB-231 triple-negative breast adenocarcinoma) were used to study the antitumor effects of the di-tert-butylphenols and their respective carborane analogs. All selected cell lines were derived from inflammation-associated tumors.
(§2) After the incubation period, the supernatant was discarded from the wells, and the cells were washed two times with 200 µL of PBS. Next, MTT solution at a final concentration of 0.5 mg/mL was added and incubated at 37 °C until purple formazan crystals were formed (30 min to one hour). After incubation, the dye was discarded. In order to dissolve the formed formazan crystals DMSO was added, and the absorbance was measured at λmax = 540 nm, with the reference/background wavelength of 670 nm. All results are expressed as a percentage of the control value which was arbitrary set to 100%. After 72 h treatment, cells were washed with 200 µL of PBS and fixed with 4% paraformaldehyde (PFA) for 15 min at room temperature (RT). Next, cells were stained with 1% CV solution. After 20 min, cells were washed in tap water and dried on air. Dye was dissolved in 33% acetic acid and the absorbance was measured at λmax = 540 nm, with the reference/background wavelength of 670 nm. Results were expressed as a percentage of the control value which was arbitrary set to 100%.
(§3) 1. General methods, materials, and procedures
(§4) 1.1.1. Reagents and cells
(§5) Reagents and cells were obtained from following manufacturers: Capricorn Scientific GmbH (Hessen, Germany) – Culture medium RPMI-1640, Dulbecco's Modified Eagle Medium (DMEM), and fetal bovine serum (FBS). Serva (Heidelberg, Germany) – Paraformaldehyde (PFA). Sigma (St. Louis, MO, USA) – Ethylenediaminetetraacetic acid (EDTA), Dimethyl sulfoxide (DMSO), chloroquine, CV, Triton X-100, RNase, PI, PBS, 3-MA, CFSE, and fluorescent mounting medium. AppliChem (MO, USA) –MTT. Thermo Fisher Scientific (Waltham, MA, USA) – DHR. R&D Systems (Minneapolis, MN, USA) – ApoStat. BD (Pharmingen, San Diego, SAD) – Annexin V-FITC (AnnV). Biological Industries (Cromwell, CT, USA) – Penicillin Streptomycin solution. American Type Culture Collection (ATCC, Manassas, Virginia, USA) – Human lung carcinoma (A549), human breast adenocarcinoma (MDA-MB-231), human colorectal ade-nocarcinoma (HT-29), human colorectal carcinoma (HCT116) and human melanoma (A375).
(§6) Cell lines (A375, HCT116, HT-29 and MDA-MB-231) were cultivated in HEPES-buffered RPMI-1640 medium while A549 cell line was cultivated in Dulbecco's Modified Eagle Medium (DMEM) which were previously supplemented with 10% heat-inactivated FBS, penicillin (100 units/mL), and streptomycin (100 μg/mL). All cells were kept at 37 °C in a humidified atmosphere with 5% CO2. For viability determi-nation cells were seeded at following densities in 96-well plates: 4 x 10^3 cells/well (A375, HT-29 and MDA-MB-231), 5 x 10^3 cells/well (HCT116), and 3 x 10^3 cells/well (A549). […]
(§7) Afterwards, cells were washed with phosphate-buffered saline (PBS) and stained with AnnV (15 μg/mL) and PI (15 μg/mL). […]
(§8) PBS and analyzed using flow cytometry. HCT116 cells were stained with 1 µg/mL of AO solution for 15 min at 37 °C to detect the presence of autophagic cell death. Afterwards cells were washed with PBS, resuspended and analyzed by flow cytometry (CyFlow® Space Partec using the PartecFloMax® software
On the technique in general: Formazan colour is commonly taken as a measure of viable cells.

The next data set concerns A375 melanoma. In words: Cell viability, MTT assay, A375. As to conditions: 72 h, mean ± SD. Type of data set: cell-based, human. How it is done:
as §1, §2, §3, §4, §5, §6, §7, §8

A further data set relates to HCT116 cells. In words: Acridine orange (AO) staining for autophagy. As to conditions: HCT116, IC50 dose, 72 h. Type of data set: cell-based, human. From the text:
Apostat staining confirmed that apoptosis was in correlation with the activation of caspases (Figure 3C). […] The […] production of reactive oxygen species explains the observed effects of the applied treatments, namely inhibition of proliferation and induction of apoptosis (Figure 3E). It is widely accepted that drug-mediated hyperproduction of reactive oxygen species that are not buffered by cellular anti-oxidative protection is responsible for cell death induction. […] The described feature is acquired during disease progression, and it is tightly connected with abnormal blood supply and a hypoxic microenvironment. Therefore, elimination of these molecules results in a rapid decrease in cell viability. […]
Non-adherent cells were removed two hours after seeding and treatment was applied. Cell viability was determined after 72 h using a crystal violet (CV) assay. […]
and R-830-Cb (50 μM) for 72 h. […] After 15 min incubation at room temperature (RT) protected from light the cells were resuspended in AnnV-binding buffer and analysed using flow cytom-etry. HCT116 cells were incubated with pan-caspase inhibitor Apostat for 30 min at 37 °C to determine whether detected apoptosis was mediated by caspase activation. […]

The test system of data set [2] is primary peritoneal exudate cells. In words: Viability of primary peritoneal exudate cells, CV assay. Type of data set: cell-based. The conditions noted are these: 72 h, cells from healthy mice.
Procedure: Primary peritoneal exudates cells (PEC) isolated from C57BL/6 mice were used to estimate the selec-
Mice were obtained from the animal facility at the Institute for Biological Research “Siniša Stanković” - National Institute of the Republic of Serbia, University of Belgrade (Belgrade, Serbia). PEC were cultivated in HEPES-buffered (HEPES = 4-
5% heat-inactivated fetal bovine serum (FBS) and antibiotics under standard growth conditions (37 °C, 5% CO2). For viability determination cells were seeded at a density of 2 x 10^5 cells/well in 96-well plates.
the indicated concentrations for 72 h. Cell viability was determined by the CV test. The data are presented as a mean ± SD from one repre-
sentative out of three independent experiments. *p<0.05 refer to untreated cultures.

The term IC50 denotes the concentration at which inhibition is half-maximal. Take “1-Hydroxy-12-(thiophen-2′-carbonyl)-1,12-dicarba-closo-dodecaborane(12) [Compound R-830-Cb]”: the half-inhibitory concentration (IC50) was found to be 40.9 ± 3.1 µM in data set [1] and 35.9 ± 0.8 µM in the data set on A375 melanoma. In the data set with HCT116 cells, the “autophagy (AO staining)” value was “intense autophagy”. Moreover, the “viability of primary peritoneal exudate cells” value in data set [2] is “completely non-toxic in the applied dose range”.
As to “(3E)-1-Hydroxy-12-(methylene-[1′-methoxypyrrolidine-2′-one])-1,12-dicarba-closo-dodecaborane(12) [Compound E-5110-Cb]”, the half-inhibitory concentration (IC50) in data set [1] is 144 ± 10.5 µM; with A375 melanoma it was 69.3 ± 1.7 µM.
The matching figures for “(3E)-1-Hydroxy-12-(methylene-[2′-ethylisothiazolidine-1′,1′-dioxide])-1,12-dicarba-closo-dodecaborane(12) [Compound S-2474-Cb]”: 108 ± 11.5 µM and 106 ± 6.3 µM.
The matching figures for “(3E)-1-Hydroxy-12-(methylene-[dihydrofurane-2′(3H)-one])-1,12-dicarba-closo-dodecaborane(12) [KME-4-Cb]”: 88.5 ± 4.3 µM and 83.3 ± 2.3 µM.
